A word on the Cmax: it is the peak of the concentration-time curve. A word on the Tmax: it is the time at which the peak concentration occurs.

The nature of series [1]: Plasma and liver pharmacokinetics following a single oral dose in monkeys (Example 6). The note with it: cynomolgus monkey, plasma, Cynomolgus monkeys, single oral dose (mg/kg per Table 6: 1a 10, A 25, B 10, C 10, D 50). Type of series: in vivo. On the procedure: […] Untreated animals were used for the collection of control liver. Plasma samples were collected at 1, 2, 4, 6, 8, 12 and 24 hours for all compounds and additionally at 0.5 hour (Compounds 1a, B and D), 3 and 10 hours (Compound C), and 32 and 48 hours post dose for Compound A. Terminal liver samples were collected from three animals per time point at 6, 12 and 24 hours post dose for all compounds and additionally at 2 hours (Compounds 1a, B and D), 3 hours (Compound C) and 32 and 48 hours post dose for Compound A. Liver specimens were collected from all animals immediately after the incision. Freezing forceps stored in liquid nitrogen were used to freeze the liver before excision.
(§1) Plasma samples were analyzed for the prodrug and 2′-methylguanosine (2′-MeG) or relevant nucleoside by LC-MS/MS. For protein precipitation and extraction, each plasma sample (50 μL) was treated with 500 μL of 0.2% formic acid in acetonitrile and 20 μL of an appropriate internal standard working solution. After vortexing and centrifugation, 500 μL of the sample extracts were transferred to a new plate, dried under N2 at ˜28° C. and reconstituted with 75 μL of 0.2% FA in water. The extracts were chromatographed on an Aquasil C18 column using a gradient system of 0.2% formic acid in water and acetonitrile. The analytes were detected and quantified by tandem mass spectrometry in positive ion mode on an MDS Sciex API5000 or an API4000 equipped with a Turbo Ionspray® interface. The calibration range was 0.500 (LLOQ) to 200 ng/mL in mouse plasma. The corresponding range for molar units is 1.68 to 673 pmol/mL.
(§2) Liver samples were analyzed for the active species 2′-methylguanosine triphosphate (2′-MeGTP) or relevant nucleoside triphosphate by LC-MS/MS. The triphosphate levels were assayed by homogenizing (on ice) a known weight of mouse liver with 4× volume of 0.95 M trichloroacetic acid (TCA). Appropriate internal standard solution was added to the homogenate followed by neutralization with 20% ammonium hydroxide solution and addition of 500 μL 1% formic acid. The tissue samples were extracted by weak anion exchange solid phase extraction (SPE). Post extraction, the eluates were evaporated under nitrogen, followed by reconstitution before injection onto the LC-MS/MS system. The samples were chromatographed on a Luna NH2 column using a gradient system of ammonium acetate (1 mM to 20 mM and pH 8.0 to pH 10.0) in water and acetonitrile (70:30). The analyte was detected and quantified by tandem mass spectrometry in positive ion mode on an API4000 equipped with a Turbo Ionspray® interface. The calibration range was 10 to 10000 pmol/mL in mouse liver homogenate (50 to 50000 pmol/g of mouse liver).

Series [2] is described as follows: Stability in mouse blood. Type of series: in vitro ADME. As to conditions: mouse whole blood, on ice, percent unchanged. As to the method:
Stability of test compounds were determined in fresh human whole blood with K2EDTA as the anticoagulant (stored refrigerated at 2-8° C. and used within 7 days of receipt). The experiment was conducted with three replicates for each time point. Whole blood, pre-incubated at 37° C. for 10-15 minutes, was fortified with a solution of test compound for a final concentration of 0.5 μM and mixed for 30 sec. At intervals (0, 0.5, 1 and 2 hr), three […] aliquots were combined with 200 μL (each) of an ice-cold solution of the internal standard (carbutamide 500 ng/mL in acetonitrile). The samples were vortexed for 30 sec and then centrifuged at 16,100 g for 5 min. The supernatant was analyzed by LC-MS/MS. The MS peak area ratio of the test compound versus the internal standard was calculated and percent unchanged test compound was calculated for each time point using this ratio.
The stability in mouse blood was determined on ice at 0, 0.5 and 1 hr as above.

The nature of series [3]: Stability in rat whole blood. Format: in vitro ADME.
Series [4] is described as follows: Plasma and liver pharmacokinetics following a single oral dose in mice (Example 6). Format: in vivo. The note with it: mouse, plasma, CD-1 mice, oral 25 mg/kg, 1a average of N = 2. On the procedure: For each compound, a single oral dose at 25 mg/kg in PEG 200 (dose volume 5 mL/kg) was administered to [CD-1] mice. Untreated animals were used for the collection of control liver. Terminal liver and plasma samples were collected from three animals per time point at 4, 12 and 24 hours post dose and additionally at 1 hour post dose in one occasion of Compound 1 (see Example 5). Liver specimens were collected from all animals immediately after the incision. Freezing forceps stored in liquid nitrogen were used to freeze the liver before excision.
as §1, §2

The test system of series [5] is fresh human hepatocytes. Briefly: Release of active metabolite in fresh human hepatocytes. Format: in vitro ADME. As to conditions: 10 μM, 6 hr. As to the method:
Plates of fresh human and mouse hepatocytes were obtained on ice. The medium was removed and replaced with hepatocyte culture medium (William's E supplemented with penicillin-streptomycin, 1% L-glutamine, 1% insulin-transferrin-selenium and 0.1 μM Dexamethasone (Invitrogen) or with Invitro GRO HI medium complemented with Torpedo antibiotics (Celsis)). Cells were left overnight in an incubator at 37° C. to acclimatize to culture and the medium.
Hepatocyte incubations were conducted at a final volume of 0.5 mL hepatocyte culture medium/well (0.8 million cells/well for human and 0.5 million cells/well for mouse; 12 well plate no overlay, collagen coat). Culture medium from overnight incubation of cells was removed and replaced with fresh medium, pre-warmed to 37° C., containing 10 μM of test compound from a stock solution in DMSO (final DMSO concentration was 0.1%). At each specific time point, incubation medium was removed and cell monolayers were carefully washed two times with ice-cold PBS. Following the last wash, all PBS was carefully removed and 1.0 mL of extraction solution (ice-cold 70% methanol/30% water) added. Cells were scraped off and suspended in the extraction solution, transferred to 2 mL polypropylene microfuge tubes and intracellular contents extracted overnight at −20° C.
After the overnight treatment the cellular extracts were prepared by centrifugation at 16,000×g for 10 min to remove cellular debris. The remaining sample was then dried using a refrigerated centrivap concentrator. Dry extracts were reconstituted in 1000 μL of HPLC-grade water and centrifuged at 16,000×g for 10 min. Aliquots (100 μL each) of the supernatant were transferred into a 96 well plate and internal standard (4 ng/mL final concentration) was added as the internal standard (IS) for LC-MS/MS analysis.
The incubation time points were 6, 24 and 48 hours for human hepatocytes and 1, 4, 8, 12 and 24 hours for mouse hepatocytes.

Where [6] appears, read: normalized to 1 μmol/kg dose, read-out: Plasma prodrug AUC0-24.
The mark [7] stands for this setting: normalized to 1 μmol/kg dose, read-out: Plasma prodrug Cmax.

For `CCOc1nc(N)nc2c1ncn2[C@@H]1O[C@@H]2COP(=O)(OC(C)C)O[C@H]2[C@@]1(C)O` (single isomer, unassigned) [Compound 1a], the AUC(0-t) is 0.15 µM·h in series [1] (setting [6]) and 0.34 µM·h in series [4] (setting [6]). The Cmax in series [1] (setting [7]) was 22 nM; in series [4] (setting [7]), 43 nM. The figures for the Tmax in series [1] (read-out: Plasma prodrug Tmax) and in series [4] (read-out: Plasma prodrug Tmax) were 2 h and 3 h, respectively. For the same compound, in series [2], the “Stability WB_Mouse (ice; 1 hr)” value turned out to be 94%. Further, the “Stability WB_Rat (ice; 1 hr)” value in series [3] turned out to be 105%. Moreover, the “FHH TP (6 hr)” value in series [5] was “BLD^a”.
